Measurements reported in ChEMBL document CHEMBL3046779, “Synthesis and anti-juvenile hormone activity of ethyl 4-[(6-substituted 2,2-dimethyl-2H-chromen-7-yl)methoxy]benzoates” (2010).

Tests used:
Format in all cases: functional
Bombyx mori [1] = experiment: Antijuvenile hormone activity against third-instar larvae of Bombyx mori assessed as precocious metamorphosis-inducing activity at 10 ug/larva
Bombyx mori [2] = experiment: Antijuvenile hormone activity against third-instar larvae of Bombyx mori assessed as precocious metamorphosis-inducing activity at 40 ug/larva
Bombyx mori [3] = experiment: Antijuvenile hormone activity against third-instar larvae of Bombyx mori assessed as precocious metamorphosis-inducing activity at 1 ug/larva
Bombyx mori [4] = experiment: Antijuvenile hormone activity against allatectomized third-instar larvae of Bombyx mori assessed as number of larvae transformed into fifth instar larvae at 1 ug/larva (reference value: 0)
Bombyx mori [5] = experiment: Antijuvenile hormone activity against allatectomized third-instar larvae of Bombyx mori assessed as number of larvae transformed into larval pupa intermediate at 1 ug/larva (reference value: 0)
Bombyx mori [6] = experiment: Antijuvenile hormone activity against allatectomized third-instar larvae of Bombyx mori assessed as number of larvae transformed into precocious pupa at 1 ug/larva (reference value: 10)
Bombyx mori [7] = experiment: Antijuvenile hormone activity against allatectomized third-instar larvae of Bombyx mori assessed as number of larvae transformed into precocious pupa at 40 ug/larva (reference value: 10)
Bombyx mori [8] = experiment: Antijuvenile hormone activity against allatectomized third-instar larvae of Bombyx mori assessed as number of larvae transformed into fifth-instar larvae at 40 ug/larva (reference value: 0)
Bombyx mori [9] = experiment: Antijuvenile hormone activity against allatectomized third-instar larvae of Bombyx mori assessed as number of larvae transformed into larval pupa intermediate at 40 ug/larva (reference value: 0)

Compound | Activity (Bombyx mori [1]) [%] | Activity (Bombyx mori [2]) [%] | Activity (Bombyx mori [3]) [%] | Activity (Bombyx mori [4]) | Activity (Bombyx mori [5]) | Activity (Bombyx mori [6]) | Activity (Bombyx mori [7]) | Activity (Bombyx mori [8]) | Activity (Bombyx mori [9])
CCOC(=O)c1ccc(OCc2cc3c(cc2OCC)C=CC(C)(C)O3)cc1 | 5 | 20 | 0 |  |  |  |  |  | 
CCOC(=O)c1ccc(OCc2cc3c(cc2OC)OCCO3)cc1 | 58 | 79 | 10 |  |  |  |  |  | 
COC(C)(C)CCC[C@H](C)C/C=C/C(C)=C/C(=O)OC(C)C [METHOPRENE] |  |  |  | 10 | 0 | 0 |  |  | 
CCOC(=O)c1ccc(OCc2cc(OC)c(OC)cc2OC)cc1 | 0 | 0 | 0 |  |  |  |  |  | 
CCOC(=O)c1ccc(OCc2ccc3c(c2)OC(C)(C)C=C3)cc1 | 20 | 65 | 0 |  |  |  |  |  | 
CCCOc1cc2c(cc1COc1ccc(C(=O)OCC)cc1)OC(C)(C)C=C2 | 0 | 16 | 0 |  |  |  |  |  | 
CCOC(=O)c1ccc(OCc2cc3c(cc2OC)CCCC3)cc1 | 10 | 30 | 0 |  |  |  |  |  | 
CCOC(=O)c1ccc(OCc2cc3c(cc2OCc2ccccc2)C=CC(C)(C)O3)cc1 | 100 | 100 | 40 |  |  |  |  |  | 
CCOC(=O)c1ccc(OCc2cc3c(cc2OC)CCC(C)(C)O3)cc1 | 94 | 87 | 46 |  |  |  | 0 | 10 | 0
CCOC(=O)c1ccc(OCc2cc3c(cc2OC)C=CC(C)(C)O3)cc1 | 95 | 100 | 75 | 2 | 6 | 2 | 0 | 10 | 0
